Laboratory results published in ChEMBL document CHEMBL4834472 (J Med Chem, 2021).
pIC50: −log10 of the molar value. The source made the active and inactive calls. The rule behind the calls is not given here.

What was measured:
MOLM-14 [1] = assay: Antiproliferative activity against human MOLM-14 cells harboring F691L mutant assessed as cell death measured after 72 hrs by resazurin dye based assay; assay type: functional; settings: MOLM-14, 72 h
MV4-11 [2] = assay: cells; settings: Homo sapiens, MV4-11, 72 h
Description: Antiproliferative activity against human MV4-11 cells assessed as cell death measured after 72 hrs by resazurin dye based assay

MOLM-14 [3] = assay: Antiproliferative activity against human MOLM-14 cells harboring D835Y mutant assessed as cell death measured after 72 hrs by resazurin dye based assay; assay type: functional; settings: MOLM-14, 72 h
SEM cells = assay: Antiproliferative activity against human SEM cells assessed as cell death measured after 72 hrs by resazurin dye based assay; assay type: functional
K562 = assay: cells; settings: Homo sapiens, K562, 72 h
Description: Antiproliferative activity against human K562 cells assessed as cell death measured after 72 hrs by resazurin dye based assay

U-937 = assay: Antiproliferative activity against human U-937 cells assessed as cell death measured after 72 hrs by resazurin dye based assay; assay type: functional; settings: U-937, 72 h
CCRF-CEM = assay: Antiproliferative activity against human CCRF-CEM cells assessed as cell death measured after 72 hrs by resazurin dye based assay; assay type: functional
[4] = biological target: Cyclin-dependent kinase 4/cyclin D1 (Homo sapiens, UniProt P11802); assay: Inhibition of CDK4/cyclin D1 (unknown origin) in presence of [32P]gammaATP by image analyser; assay type: protein-complex assay
Chain of Cyclin-dependent kinase 4/cyclin D1 (P11802 whole entry): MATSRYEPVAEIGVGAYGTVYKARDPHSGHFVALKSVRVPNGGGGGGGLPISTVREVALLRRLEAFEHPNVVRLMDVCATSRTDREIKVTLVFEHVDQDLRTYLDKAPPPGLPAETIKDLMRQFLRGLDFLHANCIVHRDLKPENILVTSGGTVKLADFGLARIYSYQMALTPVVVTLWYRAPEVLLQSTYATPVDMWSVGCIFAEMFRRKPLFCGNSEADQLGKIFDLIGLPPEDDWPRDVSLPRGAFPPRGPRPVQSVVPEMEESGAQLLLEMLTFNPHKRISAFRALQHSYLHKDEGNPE
Chain of Cyclin-dependent kinase 4/cyclin D1 (P24385 whole entry, further chain): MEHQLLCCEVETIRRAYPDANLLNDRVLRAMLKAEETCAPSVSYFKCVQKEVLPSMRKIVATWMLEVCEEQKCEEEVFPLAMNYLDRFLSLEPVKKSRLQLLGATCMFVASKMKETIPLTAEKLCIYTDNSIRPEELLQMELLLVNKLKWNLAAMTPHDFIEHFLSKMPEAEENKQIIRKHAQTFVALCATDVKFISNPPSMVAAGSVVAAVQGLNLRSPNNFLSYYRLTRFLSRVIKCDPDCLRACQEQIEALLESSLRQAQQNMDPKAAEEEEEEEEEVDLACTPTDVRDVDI

MOLM-14 [5] = assay: Antiproliferative activity against human MOLM-14 cells assessed as cell death measured after 72 hrs by resazurin dye based assay; assay type: functional; settings: MOLM-14, 72 h
[6] = biological target: Cyclin-dependent kinase 2/cyclin E1 (Homo sapiens, UniProt P24941); assay: Inhibition of CDK2/cyclin E1 (unknown origin) in presence of [32P]gammaATP by image analyser; assay type: protein-complex assay
BaF3 [7] = assay: Antiproliferative activity against mouse BaF3 cells assessed as cell death measured after 72 hrs by resazurin dye based assay; assay type: functional; settings: BaF3, 72 h
CDK2/Cyclin A2 = CDK2/Cyclin A2 (Homo sapiens, UniProt P24941); assay: Inhibition of CDK2/cyclin A2 (unknown origin) in presence of [32P]gammaATP by image analyser; assay type: protein-complex assay
MOLM-13 = assay: Antiproliferative activity against human MOLM-13 cells assessed as cell death measured after 72 hrs by resazurin dye based assay; assay type: functional; settings: MOLM-13, 72 h
BaF3 [8] = assay: Antiproliferative activity against mouse BaF3 cells harboring FLt3 ITD mutant assessed as cell death measured after 72 hrs by resazurin dye based assay; assay type: functional; settings: BaF3, 72 h
CDK9/cyclin T1 = CDK9/cyclin T1 (Homo sapiens, UniProt P50750); assay: Inhibition of CDK9/cyclin T1 (unknown origin) in presence of [32P]gammaATP by image analyser; assay type: protein-complex assay
Chain of CDK9/cyclin T1 (O60563 whole entry): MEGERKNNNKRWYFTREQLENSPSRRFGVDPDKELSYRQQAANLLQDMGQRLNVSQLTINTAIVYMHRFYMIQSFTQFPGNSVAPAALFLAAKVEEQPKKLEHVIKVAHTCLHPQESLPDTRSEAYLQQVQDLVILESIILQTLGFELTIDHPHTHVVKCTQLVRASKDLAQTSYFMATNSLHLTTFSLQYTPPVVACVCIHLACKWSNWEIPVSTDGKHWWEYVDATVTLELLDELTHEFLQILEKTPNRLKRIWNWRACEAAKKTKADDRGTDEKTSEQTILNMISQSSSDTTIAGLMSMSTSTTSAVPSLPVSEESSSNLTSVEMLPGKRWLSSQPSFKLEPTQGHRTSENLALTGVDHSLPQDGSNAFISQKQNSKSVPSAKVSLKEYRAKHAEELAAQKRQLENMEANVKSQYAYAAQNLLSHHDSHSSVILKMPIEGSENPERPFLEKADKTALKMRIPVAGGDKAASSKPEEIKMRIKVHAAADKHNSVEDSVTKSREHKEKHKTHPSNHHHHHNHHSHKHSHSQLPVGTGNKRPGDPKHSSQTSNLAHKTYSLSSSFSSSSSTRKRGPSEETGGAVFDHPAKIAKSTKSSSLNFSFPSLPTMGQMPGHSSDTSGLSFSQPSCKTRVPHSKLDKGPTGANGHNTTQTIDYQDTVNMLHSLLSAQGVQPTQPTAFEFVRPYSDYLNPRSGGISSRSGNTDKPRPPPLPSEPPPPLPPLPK
Chain of CDK9/cyclin T1 (P50750 whole entry): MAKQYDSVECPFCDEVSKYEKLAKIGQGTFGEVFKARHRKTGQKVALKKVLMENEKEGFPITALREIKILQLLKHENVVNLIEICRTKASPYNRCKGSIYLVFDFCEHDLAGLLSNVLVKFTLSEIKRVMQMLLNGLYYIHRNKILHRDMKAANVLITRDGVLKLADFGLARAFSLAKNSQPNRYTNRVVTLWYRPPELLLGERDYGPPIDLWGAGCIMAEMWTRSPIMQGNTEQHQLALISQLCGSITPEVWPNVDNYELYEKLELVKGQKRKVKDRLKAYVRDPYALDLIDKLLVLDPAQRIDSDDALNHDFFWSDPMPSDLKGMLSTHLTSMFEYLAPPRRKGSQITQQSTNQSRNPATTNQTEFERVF

THP-1 = assay: Antiproliferative activity against human THP-1 cells assessed as cell death measured after 72 hrs by resazurin dye based assay; assay type: functional; settings: THP-1, 72 h
[9] = biological target: T1, Receptor-type tyrosine-protein kinase FLT3 (Homo sapiens, UniProt P36888); assay: Inhibition of wild type FLT3 (unknown origin) using AGLT peptide substrate in presence of [32P]gammaATP by image analyser
T1 sequence (P36888 whole entry): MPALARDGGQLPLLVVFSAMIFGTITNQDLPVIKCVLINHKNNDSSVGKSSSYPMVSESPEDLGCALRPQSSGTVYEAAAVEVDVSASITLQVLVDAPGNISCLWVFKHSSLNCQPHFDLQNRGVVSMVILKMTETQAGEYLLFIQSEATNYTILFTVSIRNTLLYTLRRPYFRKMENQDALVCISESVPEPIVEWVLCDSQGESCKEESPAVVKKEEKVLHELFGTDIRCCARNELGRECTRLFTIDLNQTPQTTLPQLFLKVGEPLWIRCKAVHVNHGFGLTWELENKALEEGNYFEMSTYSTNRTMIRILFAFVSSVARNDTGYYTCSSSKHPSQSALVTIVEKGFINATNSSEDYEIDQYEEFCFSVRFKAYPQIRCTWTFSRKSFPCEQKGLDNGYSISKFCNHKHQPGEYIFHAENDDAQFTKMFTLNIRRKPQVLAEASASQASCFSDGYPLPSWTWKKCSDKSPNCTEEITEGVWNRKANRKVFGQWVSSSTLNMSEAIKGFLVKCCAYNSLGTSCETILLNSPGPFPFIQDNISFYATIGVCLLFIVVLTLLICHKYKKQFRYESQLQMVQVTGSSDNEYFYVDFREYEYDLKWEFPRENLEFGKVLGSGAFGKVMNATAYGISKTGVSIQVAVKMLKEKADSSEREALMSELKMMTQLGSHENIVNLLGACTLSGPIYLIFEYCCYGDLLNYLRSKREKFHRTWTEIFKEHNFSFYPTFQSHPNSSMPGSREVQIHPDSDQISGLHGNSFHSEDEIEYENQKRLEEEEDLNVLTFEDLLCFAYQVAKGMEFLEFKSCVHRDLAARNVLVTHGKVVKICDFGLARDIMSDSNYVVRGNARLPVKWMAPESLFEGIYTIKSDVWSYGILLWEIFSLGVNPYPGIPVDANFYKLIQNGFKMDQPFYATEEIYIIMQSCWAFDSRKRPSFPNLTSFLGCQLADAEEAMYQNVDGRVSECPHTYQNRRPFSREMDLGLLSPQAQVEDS

[10] = biological target: Receptor-type tyrosine-protein kinase FLT3 (Homo sapiens, UniProt P36888, ITD)
CDK2/Cyclin A1 = CDK2/Cyclin A1 (Homo sapiens, UniProt P24941); assay type: protein-complex assay
Description: Inhibition of CDK2/Cyclin A1 (unknown origin) at 1 uM using histone H1 as substrate preincubated for 20 mins followed by 33P-ATP addition and measured after 2 hrs by filter binding method

[11] = biological target: Cyclin-dependent kinase 1/cyclin B1 (Homo sapiens, UniProt P06493); assay: Inhibition of CDK1/cyclin B1 (unknown origin) in presence of [32P]gammaATP by image analyser; assay type: protein-complex assay
Chain of Cyclin-dependent kinase 1/cyclin B1 (P06493 whole entry): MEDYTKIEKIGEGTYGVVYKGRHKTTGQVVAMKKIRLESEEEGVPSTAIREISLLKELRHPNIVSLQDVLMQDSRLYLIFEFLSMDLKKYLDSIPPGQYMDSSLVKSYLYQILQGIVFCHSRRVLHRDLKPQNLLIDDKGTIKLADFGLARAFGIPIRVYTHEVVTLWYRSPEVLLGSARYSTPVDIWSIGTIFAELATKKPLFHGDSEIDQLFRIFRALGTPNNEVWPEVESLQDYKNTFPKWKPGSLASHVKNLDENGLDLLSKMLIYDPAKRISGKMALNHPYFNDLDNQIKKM
Chain of Cyclin-dependent kinase 1/cyclin B1 (P14635 whole entry, further chain): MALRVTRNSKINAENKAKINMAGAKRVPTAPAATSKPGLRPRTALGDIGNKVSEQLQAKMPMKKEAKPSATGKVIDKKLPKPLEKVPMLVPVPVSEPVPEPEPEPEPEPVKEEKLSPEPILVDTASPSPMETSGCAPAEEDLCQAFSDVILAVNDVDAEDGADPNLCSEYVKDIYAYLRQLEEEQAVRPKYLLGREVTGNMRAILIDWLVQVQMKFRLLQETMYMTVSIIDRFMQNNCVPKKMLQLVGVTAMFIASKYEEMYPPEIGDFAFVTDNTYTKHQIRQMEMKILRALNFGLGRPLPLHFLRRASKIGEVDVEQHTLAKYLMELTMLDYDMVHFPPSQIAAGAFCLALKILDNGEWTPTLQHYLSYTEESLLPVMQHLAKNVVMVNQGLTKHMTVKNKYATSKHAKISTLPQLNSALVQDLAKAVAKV

[12] = biological target: Receptor-type tyrosine-protein kinase FLT3 (Homo sapiens) (UniProt P36888); assay: Inhibition of FLT3 in human MV4-11 cells assessed as STAT5 phosphorylation at Y694 at 20 to 100 nM incubated for 1 hrs by Western blot analysis; assay type: cell-based; settings: dose 20-100 nM
[13] = biological target: Receptor-type tyrosine-protein kinase FLT3 (Homo sapiens) (UniProt P36888); assay: Inhibition of FLT3 autophosphorylation in human MV4-11 cells at 20 to 100 nM incubated for 1 hrs by Western blot analysis; assay type: cell-based; settings: dose 20-100 nM
MV4-11 [14] = assay: Induction of apoptosis in human MV4-11 cells assessed as decrease in MCL1 level at 100 nM incubated for 24 hrs by Western blot analysis; assay type: functional, cell-based
MV4-11 [15] = assay: Induction of apoptosis in human MV4-11 cells assessed as effect on Bcl2 level at 100 nM incubated for 24 hrs by Western blot analysis; assay type: functional, cell-based
MV4-11 [16] = assay: Induction of apoptosis in human MV4-11 cells assessed as increase in cleaved PARP1 level at 100 nM incubated for 24 hrs by Western blot analysis; assay type: functional, cell-based
MV4-11 [17] = assay: Induction of apoptosis in human MV4-11 cells assessed as caspase 3 activation using fluorescent substrate Ac-DEVD-AMC at 100 nM incubated for 24 hrs by Western blot analysis; assay type: functional, cell-based
[18] = biological target: Receptor-type tyrosine-protein kinase FLT3 (Homo sapiens) (UniProt P36888); assay: Inhibition of FLT3 in human MV4-11 cells assessed as ERK1/2 phosphorylation at 20 to 100 nM incubated for 1 hrs by Western blot analysis; assay type: cell-based; settings: dose 20-100 nM
MV4-11 [19] = assay: Induction of apoptosis in human MV4-11 cells assessed as caspase 7 activation using fluorescent substrate Ac-DEVD-AMC at 100 nM incubated for 24 hrs by Western blot analysis; assay type: functional, cell-based

Compound | pIC50 (MOLM-14 [1]) | pIC50 (MV4-11 [2]) | pIC50 (MOLM-14 [3]) | pIC50 (SEM cells) | pIC50 (K562) | pIC50 (U-937) | pIC50 (CCRF-CEM) | pIC50 [4] | pIC50 (MOLM-14 [5]) | pIC50 [6] | pIC50 (BaF3 [7]) | pIC50 (CDK2/Cyclin A2) | pIC50 (MOLM-13) | pIC50 (BaF3 [8]) | pIC50 (CDK9/cyclin T1) | pIC50 (THP-1) | pIC50 [9] | pIC50 [10] | pIC50 (CDK2/Cyclin A1) | pIC50 [11] | also measured
Fc1cc2[nH]ncc2c2c3c(c(-c4cn[nH]c4)nc12)CCCC3 | 7.30 | 7.66 | 7.34 | 5.98 | 5.48 | 5.50 | 5.26 | < 6.00 | 7.10 | 7.26 | 4.82 | 7.41 | 7.31 | 6.09 | 6.71 | 5.72 | 7.68 | 7.37 | 7.41 | 6.92 | –
Fc1cc2[nH]ncc2c2c3c(c(-c4c[nH]nc4C(F)(F)F)nc12)CCCC3 | 7.38 | 8.15 | 7.77 | 6.74 | 5.14 | 5.65 | 5.43 | < 6.00 | 7.55 | 7.48 | 5.41 | 7.41 | 8.22 | 7.38 | 6.27 | 5.46 | 7.51 | 7.92 | 7.41 | 7.28 | inhibition [12]: Active; inhibition [13]: Active; Activity (MV4-11 [14]): Active; Activity (MV4-11 [15]): Active; Activity (MV4-11 [16]): Active; Activity (MV4-11 [17]): Active; inhibition [18]: inactive; Activity (MV4-11 [19]): Active
OCc1n[nH]c2ccc3nc(-c4c[nH]nc4C(F)(F)F)c4c(c3c12)CCCC4 | 7.04 | 7.52 | 7.80 | 6.36 | 5.01 | 5.32 | 5.28 | < 6.00 | 7.44 | 6.99 | 4.79 | 6.85 | 7.74 | 6.91 | < 6.00 | 4.77 | 7.49 | 8.52 | 6.85 | 6.69 | inhibition [12]: Active; inhibition [13]: Active; Activity (MV4-11 [14]): Active; Activity (MV4-11 [15]): Active; Activity (MV4-11 [16]): Active; Activity (MV4-11 [17]): Active; inhibition [18]: inactive; Activity (MV4-11 [19]): Active
